Read-outs that look alike come from different tables or passages of the source.
Columns and labels:
[1] = Stability test at different pH and temperatures (assay of both actives); format: physicochemical
Source text: Des échantillons de la composition de l'exemple 9, qui contient 8% de bithionol sulfoxyde et 1,9% de chlorhydrate de levamisole, sont amenés à différents pH et conservés aux différentes températures, comme indiqué au tableau 4 ci-après.
Les pH inférieurs à 7 sont ajustés avec du tampon mandéli- que (1 M), tandis que les phosphates habituels ont servi (0,025 M) à fixer le pH supérieur à 7.
Dans chaque cas, le dosage des deux corps actifs est effectué aux différentes périodes choisies et les teneurs en ces corps sont notées au tableau 4.

[2] = Maximum tolerated dose and therapeutic index; conditions: in vivo, read-out: indice thérapeutique
Source text: La présente invention apporte un progrès marqué dans les traitements des atteintes justiciables du bithionol sulfoxyde et des mélanges de ce composé avec d'autres anthelminthiques. Elle permet l'application des composés actifs sous la forme d'un liquide homogène, ne donnant pas lieu à la sédimentation, susceptible par conséquent d'être dosé avec précision et appliqué par des personnes non spécialisées.Un autre avantage considérable de la composition suivant l'invention est la possibilité de l'administration de celle-ci par injection, forme qui était complètement exclue jusqu'à présent. Un autre avantage également très important de la composition selon l'invention est qu'elle permet l'utilisation du bithionol sulfoxyde et des autres anthelminthiques, composant le mélange, à des doses moindres que celles qui étaient jusqu'alors utilisées. Pour n'en donner qu'un exemple pour le bithionol sulfoxyde, cette dose peut passer de 40 mg/kg de poids vif traité à 30 mg/kg pour une même efficacité. Lorsque l'on sait que la dose maximale tolérée est de 150 mg/kg, cela fait passer l'indice thérapeutique de moins de 4 à 5.

[3] = in vivo; cited from earlier work
[4] = cited from earlier work

SMILES	conservation ([1]; pH 2 à 4)	conservation ([1]; pH de 6 à 8)	selectivity ratio ([2]; dose 30 mg/kg (composition selon l'invention))	selectivity ratio ([2]; dose 40 mg/kg de poids vif (earlier forms))	dose maximale tolérée [3] [mg/kg]	insolubilité dans l'eau ([4]; à 25°C) [ppm]	conservation ([1]; pH 6 à 8)	solubilité dans l'eau ([4]; water) [%]
[O-][S+](c1cc(Cl)cc(Cl)c1O)c1cc(Cl)cc(Cl)c1O [bithionol sulfoxyde, bis(hydroxy-2 dichloro-3,5 phényl) sulfoxyde]	tout à fait satisfaisante	se conserve bien	5	< 4	150	4	–	–
c1ccc([C@H]2CN3CCSC3=N2)cc1 [chlorhydrate de L(-) levamisole, tétrahydro-2,3,5,6 phényl-6 imidazo(2,1-b)thiazole]	–	–	–	–	–	–	tient mal	~20
